ChEMBL document CHEMBL2346628, “Real-time analysis of membrane permeabilizing effects of oleanane saponins” (Bioorg Med Chem, 2013)
Active and inactive are the calls of the source. The rule behind the calls is not given here.

How the values were obtained:
[1] = Hemolytic activity against human RBC at 12 uM after 30 mins relative to control; assay type: ADME, cell-based, Erythrocyte
[2] = Hemolytic activity against human RBC at 6 uM after 30 mins relative to control; assay type: ADME, cell-based, Erythrocyte; conditions: red blood cells (RBC), read-out: Activity
[3] = system: ECV-304; test: Membrane permeabilization effect on lysosome of human ECV304 cells assessed as induction of membrane lysis at 24 to 48 uM after 1 hr by N-Acetylglucosaminidase release assay; assay type: functional, cell-based
[4] = system: ECV-304; test: Membrane permeabilization effect on lysosome of human ECV304 cells assessed as induction of membrane lysis up to 6 uM after 1 hr by N-Acetylglucosaminidase release assay; assay type: functional, cell-based
[5] = system: ECV-304; test: Membrane permeabilization effect on human ECV304 cells assessed as increase in propidium iodide uptake at 12 uM after 1 hr by FACS flow cytometric analysis; assay type: functional, cell-based
[6] = system: ECV-304; test: Membrane permeabilization effect on human ECV304 cells assessed as induction of membrane lysis at 48 uM after 1 hr; assay type: functional, cell-based
[7] = system: ECV-304; test: Membrane permeabilization effect on human ECV304 cells assessed as normalized cell index at 12 to 24 uM measured every 15 secs for 3 hrs by real time impedance-based plate reader analysis relative to control relative to control; assay type: functional
[8] = system: ECV-304; test: Membrane permeabilization effect on human ECV304 cells assessed as normalized cell index at 6 uM measured every 15 secs for 3 hrs by real time impedance-based plate reader analysis relative to control; assay type: functional
[9] = system: ECV-304; test: Membrane permeabilization effect on human ECV304 cells at 3 uM measured every 15 secs for 3 hrs by real time impedance-based plate reader analysis; assay type: functional, cell-based
[10] = Hemolytic activity against human RBC at 48 uM after 30 mins; assay type: ADME, cell-based; conditions: erythrocyte, 0.5 h
[11] = Hemolytic activity against human RBC at 24 uM after 30 mins relative to control; assay type: ADME, cell-based, Erythrocyte
[12] = Hemolytic activity against human RBC up to 12 uM after 30 mins; assay type: ADME, cell-based; conditions: erythrocyte, 0.5 h
[13] = system: ECV-304; test: Membrane permeabilization effect on lysosome of human ECV304 cells assessed as induction of membrane lysis at 48 uM after 1 hr by N-Acetylglucosaminidase release assay; assay type: functional, cell-based
[14] = system: ECV-304; test: Membrane permeabilization effect on human ECV304 cells assessed as increase in propidium iodide uptake at 24 to 48 uM after 1 hr by FACS flow cytometric analysis; assay type: functional, cell-based
[15] = system: ECV-304; test: Membrane permeabilization effect on human ECV304 cells at 12 to 24 uM measured every 15 secs for 3 hrs by real time impedance-based plate reader analysis; assay type: functional, cell-based
[16] = system: ECV-304; test: Membrane permeabilization effect on human ECV304 cells at 6 uM measured every 15 secs for 3 hrs by real time impedance-based plate reader analysis; assay type: functional, cell-based
[17] = system: ECV-304; test: Cytotoxicity against human ECV304 cells at 24 uM after 3 hrs; assay type: cell-based; conditions: ecv-304, 3 h
[18] = system: ECV-304; test: Membrane permeabilization effect on human ECV304 cells assessed as normalized cell index at 24 uM measured every 15 secs for 3 hrs by real time impedance-based plate reader analysis relative to control; assay type: functional
[19] = system: ECV-304; test: Membrane permeabilization effect on human ECV304 cells assessed as increase in propidium iodide uptake at 24 uM after 1 hr by FACS flow cytometric analysis; assay type: functional, cell-based
[20] = system: ECV-304; test: Membrane permeabilization effect on human ECV304 cells up to 12 uM measured every 15 secs for 3 hrs by real time impedance-based plate reader analysis; assay type: functional, cell-based
[21] = red blood cells (RBC), read-out: Activity

Question: For `CC(=O)O[C@H]1[C@H](O[C@@H]2OC[C@@H](O)[C@H](O)[C@H]2O)[C@@H](O)[C@H](O[C@@H]2[C@H](O)[C@@H](O[C@@H]3O[C@@H](C)[C@H](O[C@@H]4OC[C@@H](O)[C@H](O[C@@H]5OC[C@@H](O)[C@H](O)[C@H]5O)[C@H]4O)[C@@H](O)[C@H]3O)[C@H](OC(=O)[C@]34CCC(C)(C)C[C@H]3C3=CC[C@@H]5[C@@]6(C)CC[C@H](O[C@H]7O[C@H](C(=O)O)[C@@H](O)[C@H](O[C@@H]8OC[C@@H](O)[C@H](O)[C@H]8O)[C@H]7O[C@@H]7O[C@H](CO)[C@H](O)[C@H](O)[C@H]7O)[C@@](C)(C=O)[C@@H]6CC[C@@]5(C)[C@]3(C)C[C@H]4O)O[C@@H]2C)O[C@@H]1C`, which Activity ([1]; erythrocyte, 0.5 h, 12 µM) is on record?
Answer: Its Activity is “Toxic”.

Question: And the hemolysis at 0.5 h, 6 µM [2]?
Answer: The hemolysis at 0.5 h, 6 µM was 61%.

Question: And the Activity [3]?
Answer: Its Activity is “Active”.

Question: And the Activity [4]?
Answer: The Activity was “inactive”.

Question: And the Activity [5]?
Answer: Its Activity is “Active”.

Question: What about the Activity [6] of the same compound?
Answer: The Activity was “Active”.

Question: And the “fold change (FC)” value [7]?
Answer: Its value is 0.

Question: And the “fold change (FC)” value [8]?
Answer: The value was 0.6.

Question: And the Activity [9]?
Answer: Its Activity is “inactive”.

Question: For `C[C@@H]1O[C@@H](O[C@H]2[C@H](OC(=O)[C@]34CCC(C)(C)C[C@H]3C3=CC[C@@H]5[C@@]6(C)CC[C@H](O[C@H]7O[C@H](C(=O)O)[C@@H](O)[C@H](O[C@@H]8OC[C@@H](O)[C@H](O)[C@H]8O)[C@H]7O[C@@H]7O[C@H](CO)[C@H](O)[C@H](O)[C@H]7O)[C@@](C)(C=O)[C@@H]6CC[C@@]5(C)[C@]3(C)CC4)O[C@H](C)[C@H](O[C@@H]3O[C@H](C)[C@@H](O)[C@H](O)[C@H]3O)[C@@H]2O)[C@H](O)[C@H](O)[C@H]1O[C@@H]1OC[C@@H](O)[C@H](O[C@@H]2OC[C@@H](O)[C@H](O)[C@H]2O)[C@H]1O`, which Activity [10] is on record?
Answer: The Activity was “Toxic”.

Question: What about the hemolysis at 0.5 h, 24 µM [11, 21] of the same compound?
Answer: The hemolysis at 0.5 h, 24 µM was 30%.

Question: And the Activity [12]?
Answer: Its Activity is “Non-toxic”.

Question: What about the Activity [4] of the same compound?
Answer: The Activity was “inactive”.

Question: And the Activity [13]?
Answer: The Activity was “inactive”.

Question: And the Activity [14]?
Answer: Its Activity is “Active”.

Question: And the Activity [15]?
Answer: Its Activity is “inactive”.

Question: What about the Activity [16] of the same compound?
Answer: The Activity was “Active”.

Question: With `CCC(C)C(CC(O)CC(=O)O[C@H]1[C@@H](O)[C@@H](C)O[C@@H](OC(=O)[C@]23CCC(C)(C)C[C@H]2C2=CC[C@@H]4[C@@]5(C)CC[C@H](O[C@H]6O[C@H](C(=O)O)[C@@H](O)[C@H](O[C@@H]7OC[C@@H](O)[C@H](O)[C@H]7O)[C@H]6O[C@@H]6O[C@H](CO)[C@H](O)[C@H](O)[C@H]6O)[C@@](C)(C=O)[C@@H]5CC[C@@]4(C)[C@]2(C)C[C@H]3O)[C@@H]1O[C@@H]1O[C@@H](C)[C@H](O[C@@H]2OC[C@@H](O)[C@H](O[C@@H]3OCC(O)(O)[C@H]3O)[C@H]2O)[C@@H](O[C@@H]2O[C@H](CO)[C@@H](O)[C@H](O)[C@H]2O)[C@H]1O)OC(=O)CC(O)CC(O[C@@H]1O[C@@H](CO)[C@H](O)[C@H]1O[C@@H]1O[C@@H](C)[C@H](O)[C@@H](O)[C@H]1O)C(C)CC` (stereo in doubt; form 1) [listing 1 of 2 here] as the compound, how does the Activity ([11]; erythrocyte, 0.5 h, 24 µM) read?
Answer: Its Activity is “Toxic”.

Question: And the hemolysis at 0.5 h, 12 µM [1, 21]?
Answer: Its hemolysis at 0.5 h, 12 µM is 67%.

Question: What about the hemolysis at 0.5 h, 6 µM [2] of the same compound?
Answer: The hemolysis at 0.5 h, 6 µM was 27%.

Question: And the Activity [17]?
Answer: The Activity was “Toxic”.

Question: And the “fold change (FC)” value [18]?
Answer: Its value is 0.1.

Question: What does the source list for `CCC(C)C(CC(O)CC(=O)O[C@H]1[C@@H](O)[C@@H](C)O[C@@H](OC(=O)[C@]23CCC(C)(C)C[C@H]2C2=CC[C@@H]4[C@@]5(C)CC[C@H](O[C@H]6O[C@H](C(=O)O)[C@@H](O)[C@H](O[C@@H]7OC[C@@H](O)[C@H](O)[C@H]7O)[C@H]6O[C@@H]6O[C@H](CO)[C@H](O)[C@H](O)[C@H]6O)[C@@](C)(C=O)[C@@H]5CC[C@@]4(C)[C@]2(C)C[C@H]3O)[C@@H]1O[C@@H]1O[C@@H](C)[C@H](O[C@@H]2OC[C@@H](O)[C@H](O[C@@H]3OCC(O)(O)[C@H]3O)[C@H]2O)[C@@H](O[C@@H]2O[C@H](CO)[C@@H](O)[C@H](O)[C@H]2O)[C@H]1O)OC(=O)CC(O)CC(O[C@@H]1O[C@@H](CO)[C@H](O)[C@H]1O[C@@H]1O[C@@H](C)[C@H](O)[C@@H](O)[C@H]1O)C(C)CC` (stereo in doubt; form 1) [listing 2 of 2 here]?
Answer: Activity [4]: inactive; Activity [6]: Active; Activity [19]: Active; Activity [20]: inactive
